From US8163771B2, “11 β-HSD1 modulators” (Exelixis, Inc., priority 2008, dated 2012)

Target: T1, recombinant human 11 β-HSD1 (Homo sapiens, UniProt P28845)
T1 construct: made in house; host or cells: E. coli
Experiment: 11 β-HSD1 SPA Assay (Scintillation Proximity Assay)
Assay type: biochemical
How it was run: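 Scintillation proximity read-out of cortisol formed from 40 nM [3H]cortisone by purified recombinant human enzyme (30-100 nM, E. coli) with 1 mM NADPH, pH7.4, 2 hours at room temperature; beads with cortisol antibody and glycyrrhetinic acid stop the reaction, read next day. IC50 derived from inhibition normalised to background and maximal wells.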

T1 sequence (P28845 whole entry): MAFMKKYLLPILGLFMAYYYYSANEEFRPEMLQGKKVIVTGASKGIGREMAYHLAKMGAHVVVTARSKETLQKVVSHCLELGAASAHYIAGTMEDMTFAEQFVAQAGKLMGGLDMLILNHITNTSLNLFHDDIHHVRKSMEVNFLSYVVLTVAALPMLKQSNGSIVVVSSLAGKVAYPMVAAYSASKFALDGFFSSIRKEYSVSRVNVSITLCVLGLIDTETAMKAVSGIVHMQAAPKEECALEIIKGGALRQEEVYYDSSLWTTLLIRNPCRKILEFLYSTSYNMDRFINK

SMILES | IC50 [nM]
CC(C)(Oc1cc(Cl)c(C(C)(C)O)cc1Cl)C(=O)N[C@H]1C[C@H]2CC[C@@H](C1)N2c1ccc(C(=O)NCC(F)F)cn1 [Example 303, 6-[3-endo-({2-[2,5-dichloro-4-(2-hydroxypropan-2-yl)phenoxy]-2-methylpropanoyl}amino)-8-azabicyclo[3.2.1]oct-8-yl]-N-(2,2-difluoroethyl)pyridine-3-carboxamide] | < 200
Cc1ccc(OC(C)(C)C(=O)N[C@H]2C[C@H]3CC[C@@H](C2)N3c2ccc(S(C)(=O)=O)cc2)c(Cl)c1 [Example 214, 2-[(2-chloro-4-methylphenyl)oxy]-2-methyl-N-{8-[4-(methylsulfonyl)phenyl]-8-azabicyclo[3.2.1]oct-3-endo-yl}propanamide] | < 200
CC(C)(Oc1cccc2[nH]ncc12)C(=O)N[C@H]1C[C@H]2CC[C@@H](C1)N2c1ccc(C(=O)NCC(F)(F)F)cn1 [Example 385, 6-(3-endo-{[2-(1H-indazol-4-yloxy)-2-methylpropanoyl]amino}-8-azabicyclo[3.2.1]oct-8-yl)-N-(2,2,2-trifluoroethyl)pyridine-3-carboxamide] | < 200
CC(Oc1ccc(Cl)cc1Cl)C(=O)N[C@H]1C[C@H]2CC[C@@H](C1)N2c1ccc(C(=O)NC2CC2)cn1 (stereo partly drawn) [Example 82, N-cyclopropyl-6-[3-endo-({2-[(2,4-dichlorophenyl)oxy]propanoyl}amino)-8-azabicyclo[3.2.1]oct-8-yl]pyridine-3-carboxamide] | < 200
CC(C)(Oc1ccc(C(F)(F)F)cc1Cl)C(=O)N[C@H]1C[C@H]2CC[C@@H](C1)N2c1ccc(C(N)=O)cn1 [Example 183, 6-{3-endo-[(2-{[2-chloro-4-(trifluoromethyl)phenyl]oxy}-2-methylpropanoyl)amino]-8-azabicyclo[3.2.1]oct-8-yl}pyridine-3-carboxamide] | < 200
CC(C)(Oc1ccc(Cl)cc1Cl)C(=O)N[C@H]1C[C@H]2CC[C@@H](C1)N2c1ccc(C#N)cn1 [Example 55, N-[8-(5-cyanopyridin-2-yl)-8-azabicyclo[3.2.1]oct-3-endo-yl]-2-[(2,4-dichlorophenyl)oxy]-2-methylpropanamide] | < 200
CC(C)(Oc1ccc(Cl)cc1Cl)C(=O)N[C@H]1C[C@H]2CC[C@@H](C1)N2c1ccc(C(=O)NC2CCOCC2)cn1 [Example 378, 6-(3-endo-{[2-(2,4-dichlorophenoxy)-2-methylpropanoyl]amino}-8-azabicyclo[3.2.1]oct-8-yl)-N-(tetrahydro-2h-pyran-4-yl)pyridine-3-carboxamide] | < 200
C[C@H](NC(=O)c1ccc(N2C3CCC2CC(NC(=O)C(C)(C)Oc2ccc(F)cc2Cl)C3)nc1)C(F)(F)F (stereo partly drawn) [Example 434, 6-(3-endo-{[2-(2-chloro-4-fluorophenoxy)-2-methylpropanoyl]amino}-8-azabicyclo[3.2.1]oct-8-yl)-N-[(2S)-1,1,1-trifluoropropan-2-yl]pyridine-3-carboxamide] | < 200
O=C(N[C@H]1C[C@H]2CC[C@@H](C1)N2c1ncccc1C(F)(F)F)C1(c2ccc(Cl)cc2)CC1 [Example 5] | < 2000
CC(C)(Oc1ncc(Cl)cc1Cl)C(=O)N[C@H]1C[C@H]2CC[C@@H](C1)N2c1ccc(S(C)(=O)=O)cc1 [Example 175, 2-[(3,5-dichloropyridin-2-yl)oxy]-2-methyl-N-{8-[4-(methylsulfonyl)phenyl]-8-azabicyclo[3.2.1]oct-3-endo-yl}propanamide] | < 200
C[C@H](NC(=O)c1ccc(N2C3CCC2CC(NC(=O)C(C)(C)Oc2cc(F)c(F)cc2Cl)C3)nc1)C(F)(F)F (stereo partly drawn) [Example 430, 6-(3-endo-{[2-(2-chloro-4,5-difluorophenoxy)-2-methylpropanoyl]amino}-8-azabicyclo[3.2.1]oct-8-yl)-N-[(2S)-1,1,1-trifluoropropan-2-yl]pyridine-3-carboxamide] | < 200
CC(C)(Oc1cc(CO)c(Cl)cc1Cl)C(=O)NC1CC2CCC(C1)N2c1ccc(C(=O)NCC(F)F)cn1 (stereo not drawn) [Example 428, 6-[3-endo-({2-[2,4-dichloro-5-(hydroxymethyl)phenoxy]-2-methylpropanoyl}amino)-8-azabicyclo[3.2.1]oct-8-yl]-N-(2,2-difluoroethyl)pyridine-3-carboxamide] | < 200
CC(C)(Oc1ccc(F)cc1Cl)C(=O)N[C@H]1C[C@H]2CC[C@@H](C1)N2c1ccc(C(=O)NC2CC2)cn1 [Example 265, 6-[3-endo-({2-[(2-chloro-4-fluorophenyl)oxy]-2-methylpropanoyl}amino)-8-azabicyclo[3.2.1]oct-8-yl]-N-cyclopropylpyridine-3-carboxamide] | < 200
CC(C)(Oc1ccc(F)cc1C(F)(F)F)C(=O)NC1CC2CCC(C1)N2c1ccc(C(=O)NCC(O)C(F)(F)F)cn1 (stereo not drawn) [Example 459, 6-[3-endo-({2-[4-fluoro-2-(trifluoromethyl)phenoxy]-2-methylpropanoyl}amino)-8-azabicyclo[3.2.1]oct-8-yl]-N-(3,3,3-trifluoro-2-hydroxypropyl)pyridine-3-carboxamide] | < 200
O=C(NC1CC1)c1ccc(N2[C@@H]3CC[C@H]2C[C@@H](NC(=O)C2(c4ccccc4Cl)CC2)C3)nc1 [Example 17, 6-[3-endo-({[1-(2-chlorophenyl)cyclopropyl]carbonyl}amino)-8-azabicyclo[3.2.1]oct-8-yl]-N-cyclopropylpyridine-3-carboxamide] | < 200
CC(C)(Oc1cc(Cl)c(Cl)cc1Cl)C(=O)N[C@H]1C[C@H]2CC[C@@H](C1)N2c1ccc(S(C)(=O)=O)cn1 [Example 197, 2-methyl-N-{8-[5-(methylsulfonyl)pyridin-2-yl]-8-azabicyclo[3.2.1]oct-3-endo-yl}-2-[(2,4,5-trichlorophenyl)oxy]propanamide] | < 200
O=C(NC1CC1)c1ccc(N2[C@@H]3CC[C@H]2C[C@@H](NC(=O)C2(c4ccc(Cl)cc4)CC2)C3)c(F)c1 [Example 148, 4-[3-endo-({[1-(4-chlorophenyl)cyclopropyl]carbonyl}amino)-8-azabicyclo[3.2.1]oct-8-yl]-N-cyclopropyl-3-fluorobenzamide] | < 200
CC(C)(Oc1ccccc1C(F)(F)F)C(=O)N[C@H]1C[C@H]2CC[C@@H](C1)N2c1ccc(S(C)(=O)=O)cc1 [Example 257, 2-methyl-N-{8-[4-(methylsulfonyl)phenyl]-8-azabicyclo[3.2.1]oct-3-endo-yl}-2-{[2-(trifluoromethyl)phenyl]oxy}propanamide] | < 200
CC(C)(Oc1ncc(C(F)(F)F)cc1Cl)C(=O)N[C@H]1C[C@H]2CC[C@@H](C1)N2c1ccc(S(C)(=O)=O)cc1 [Example 249, 2-{[3-chloro-5-(trifluoromethyl)pyridin-2-yl]oxy}-2-methyl-N-{8-[4-(methylsulfonyl)phenyl]-8-azabicyclo[3.2.1]oct-3-endo-yl}propanamide] | < 2000
CC(C)(Oc1cc(OCCN2CCOCC2)c(Cl)cc1Cl)C(=O)N[C@H]1C[C@H]2CC[C@@H](C1)N2c1ccc(C(=O)NCC(F)(F)F)cn1 [Example 407, 6-(3-endo-(2-(2,4-dichloro-5-(2-morpholinoethoxy)phenoxy)-2-methylpropanamido)-8-azabicyclo[3.2.1]octan-8-yl)-N-(2,2,2-trifluoroethyl)nicotinamide] | < 200
CC(C)(Oc1ccc2ccccc2c1Cl)C(=O)N[C@H]1C[C@H]2CC[C@@H](C1)N2c1ccc(C(=O)NCC(F)(F)F)cn1 [Example 348, 6-[3-endo-({2-[(1-chloronaphthalen-2-yl)oxy]-2-methylpropanoyl}amino)-8-azabicyclo[3.2.1]oct-8-yl]-N-(2,2,2-trifluoroethyl)pyridine-3-carboxamide] | < 200
CC(C)(Oc1ccc(Cl)cc1C(F)(F)F)C(=O)N[C@H]1C[C@H]2CC[C@@H](C1)N2c1ccc(S(C)(=O)=O)nc1 [Example 299, 2-{[4-chloro-2-(trifluoromethyl)phenyl]oxy}-2-methyl-N-{8-[6-(methylsulfonyl)pyridin-3-yl]-8-azabicyclo[3.2.1]oct-3-endo-yl}propanamide] | < 200
CC(C)NC(=O)c1ccc(N2[C@@H]3CC[C@H]2C[C@@H](NC(=O)C(C)(C)Oc2ccc(Cl)cc2)C3)nc1 [Example 30, 6-[3-endo-({2-[(4-chlorophenyl)oxy]-2-methylpropanoyl}amino)-8-azabicyclo[3.2.1]oct-8-yl]-N-(1-methylethyl)pyridine 3-carboxamide] | < 200
C[C@@H](CO)NC(=O)c1ccc(N2C3CCC2CC(NC(=O)C(C)(C)Oc2ccc(Cl)cc2Cl)C3)nc1 (stereo partly drawn) [Example 397, 6-(3-endo-{[2-(2,4-dichlorophenoxy)-2-methylpropanoyl]amino}-8-azabicyclo[3.2.1]oct-8-yl)-N-[(2S)-1-hydroxypropan-2-yl]pyridine-3-carboxamide] | < 200
CC(C)(Oc1ccc(Cl)cc1Cl)C(=O)N[C@H]1C[C@H]2CC[C@@H](C1)N2c1ccc(C(=O)NCC(F)(F)F)cn1 [Example 65, 6-[3-endo-({2-[(2,4-dichlorophenyl)oxy]-2-methylpropanoyl}amino)-8-azabicyclo[3.2.1]oct-8-yl]-N-(2,2,2-trifluoroethyl)pyridine-3-carboxamide] | < 200
CC(C)(Oc1ccc(Cl)cc1C(F)F)C(=O)N[C@H]1C[C@H]2CC[C@@H](C1)N2c1ccc(C(=O)NCC(F)(F)F)cn1 [Example 364, 6-[3-endo-({2-[4-chloro-2-(difluoromethyl)phenoxy]-2-methylpropanoyl}amino)-8-azabicyclo[3.2.1]oct-8-yl]-N-(2,2,2-trifluoroethyl)pyridine-3-carboxamide] | < 200
CC(C)(Oc1cc(C(C)(C)O)c(Cl)cc1Cl)C(=O)NC1CC2CCC(C1)N2c1ccc(C(=O)NCC(O)C(F)(F)F)cn1 (stereo not drawn) [Example 381, 6-[3-endo-({2-[2,4-dichloro-5-(2-hydroxypropan-2-yl)phenoxy]-2-methylpropanoyl}amino)-8-azabicyclo[3.2.1]oct-8-yl]-N-(3,3,3-trifluoro-2-hydroxypropyl)pyridine-3-carboxamide] | < 200
